Laboratory results published in US20040265979A1, “Novel macrophage foam cell formation inhibitor fka-25 and process for producing the same” (priority 2004, published 2004).

What was measured:
[1] = Physico-chemical properties: solubility in solvents, acidity/basicity; assay type: physicochemical
Text: Physico-chemical properties of FKA-25 substance of the present invention are as follows.

[2] = tested on: Macrophages isolated from mice peritoneum; assay: Formation of cholesteryl ester and lipid droplet in mouse intraperitoneal macrophages ([1-14C]oleic acid incorporation, TLC); assay type: cell-based; details: Macrophage, mouse peritoneal macrophages, liposome + [1-14C]oleic acid
Text: Inhibitory action of FKA-25 substance of the present invention against intraperitoneal formation of cholesteryl ester and lipid droplet in mice is explained as follows.
Formation of cholesteryl ester and lipid droplet in mice in the intraperitoneal macrophage was examined according to the method of Namatame et al. (J. Biochem. 125, 319-327, 1999).
Macrophages isolated from mice peritoneum were suspended in Dulbecco modified Eagle's medium containing 6.8% lipoprotein deficient serum (6.8% LPDS-DMEM) 2.0×10^6 cells/ml, and plated each 0.25 ml into 48 well microplate (Corning Inc.) or slide chamber (Nunc Inc.).
The plate was incubated in 5% carbon dioxide incubator at 37° C. for 2 hours, then cells without attachment were removed by washing with Hank's solution. After washing, cells were incubated with 6.8% LPDS-DMEM for 1 hour, and FKA-25 substance (2.5 μl methanol), liposome (a composition consisting of phosphatidylcholine/phosphatidylserine/dicetylphosphate/cholesterol=10:10:2:15 (n mol) in 0.3 M glucose 10 μl) and [1-^14C]oleic acid (5 μl, 0.05 μCi, 1 nmol) were added, then incubated for 14 hours.
Cultured supernatant was removed off and intracellular neutral lipid was extracted twice by adding hexane 0.6 ml and isopropanol 0.4 ml. […] The separated [^14C]cholesteryl oleate and [^14C]triacylglycerol were quantitatively measured by using radio scanner (Ambis Inc., the U.S.). […]

## CC(C)=CCc1c(C(O)C2OC2(C)C)ccc2[nH]c3c(c12)CC1CCC2(O)C(C)(C)C(=O)CCC2(C)C31C (centres unmarked) [FKA-25 substance]
[1]
  Differentiation from acidity, neutrality and basicity: weak basic substance
[1]; in methanol, acetone, chloroform and ethyl acetate
  Solubility in solvents: Soluble
[1]; in water and hexane
  Solubility in solvents: slightly soluble
[2]; at 3.2 μM, 14 hours, read-out: inhibition of the formation of triacylglycerol
  inhibition at 3.2 µM: ~50%
[2]; incubated for 14 hours, read-out: IC50, inhibition of the formation of [14C]cholesteryl oleate
  IC50: 4 µM
